The values below come from publication PMC6015222, “Targeting Phosphopeptide Recognition by the Human BRCA1 Tandem BRCT Domain to Interrupt BRCA1-Dependent Signaling” (Cell Chemical Biology, 2018).

“Also recorded” adds a separate entry of the source.

Assay [1] concerns the target T1, BRCA1 tBRCT / BACH1 unimolecular FRET biosensor (Homo sapiens, UniProt P38398).
T1 construct: the BRCA1 tBRCT domain (aa 1643-1862); expressed in transfected cells
The experiment in a line: Unimolecular FRET biosensor assay in HEK293 cells (sensitized emission, acceptor photobleaching). The class given is cell-based. As to conditions: 100 μM, 24 hr, 16 Gy. The procedure: HEK293 cells expressing the stably integrated FRET sensor in a tetracycline-inducible system were used. 3.5x10^5 cells/35mm dish were seeded in Matrigel coated plates and expression was induced using doxycycline (1μg/ml) for 48 h. Cells were incubated with compounds for 24 h in serum containing media at 100μM final concentration with 0.5% DMSO. Where indicated, mCherry-BRCA1 tBRCT constructs were transiently transfected in a 4.5:1 ratio of Fugene:DNA and incubated in serum-containing media for 24 h (Fugene HD transfection reagent, Promega). Two h after 16 Gy IR, cells were washed in 1x PBS (pH 7.4) and fixed in 4% PFA at room temperature (RT) for 10’. Cells were mounted with Mowiol (without anti-fade) before imaging. The following excitation and emission wavelengths were used: Ex 402nm / Em 457nm for Tag-BFP; Ex 483nm / Em 506nm for Tag-GFP2 and Ex 594nm / Em 610nm for mCherry. […] Images acquired as noted below were quantified using HCS studio 2.0 (Thermo Fisher Scientific) to define nuclear morphology and average nuclear intensities.
For sensitized emission FRET measurements, images were acquired using a Zeiss epifluorescence microscope with Apotome using a 40x oil objective. […] Corrections for the extent of spectral cross-talk were calculated and applied as follows ([Müller et al., 2013]). […]

For assay [2], the system named is BRCA1 foci. The experiment in a line: Radiation-induced nuclear BRCA1 foci, high-content imaging, HEK293 cells. Type of assay: cell-based, human. As to conditions: 100 μM added 6 hr after 16 Gy, staining 18 hr after irradiation. On the procedure: (§1) HEK293 cells stably harboring plasmids for Tet-inducible expression of tBRCT domains were seeded at 30,000 cells/well on Matrigel-coated 96-well plates, and treated as indicated. Cells were fixed in 2.5% PFA, for 20’ at RT and incubated in 1x PBS with 10% FBS plus 0.5% TritonX-100 for 1 h for blocking and permeabilization. Primary antibody staining was performed at the indicated dilutions in PBST-BSA buffer (0.7mg/ml BSA, 0.05% Tween-20 in 1XPBS) for 1h at RT. Cells were then extensively washed in PBST-BSA buffer and stained with goat-anti-mouse Alexa 488 secondary antibody (Invitrogen), at 1:1000 dilution along with 2.5μg/ml DAPI for nuclear staining. […] Images were acquired on a high-content imaging platform (Cellomics ArrayScan VTI HCS Reader (Thermo Fisher Scientific)) using a 40x objective. On average ∼800 fields from 6-well replicates, containing a total of ∼10-20K cells were imaged per treatment group and quantified using image analysis software (in-house algorithms using MatLab and commercially available HCS studio 2.0 from Thermo Fisher Scientific). […] Cut-off values for foci number per cell specifying the maximal difference between control and irradiated samples were determined to calculate the percentage of cells positive for radiation-induced foci. […]

Assay [3] deals with TOPBP1 foci. Description: Radiation-induced TOPBP1 foci, U2OS cells. The class given is cell-based. The settings on record: 100 μM added 6 h after irradiation.
The test system of assay [4] is RAD51 foci. Description: Radiation-induced nuclear RAD51 foci. The class given is cell-based, human. As to conditions: 100 μM, 16 Gy, as Figure 5A. On the procedure:
as §1

In assay [5] the test system is RPA32 foci. The experiment in a line: Radiation-induced nuclear RPA32 foci. As to conditions: 100 μM, 16 Gy, as Figure 5A. The class given is cell-based, human. The procedure:
as §1

T1 sequence (P38398 1643-1862): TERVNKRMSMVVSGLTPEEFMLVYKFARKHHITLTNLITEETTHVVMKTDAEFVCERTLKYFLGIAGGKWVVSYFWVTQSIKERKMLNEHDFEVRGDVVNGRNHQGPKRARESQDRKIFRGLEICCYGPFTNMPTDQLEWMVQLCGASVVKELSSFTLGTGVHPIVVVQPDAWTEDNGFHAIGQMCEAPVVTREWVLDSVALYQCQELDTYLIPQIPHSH

On to `O=C(c1ccc2nc(-c3ccccc3)[nH]c2c1)N1CCN(Cc2ccccc2F)CC1` [Bractoppin, (4-(2-fluorobenzyl)piperazin-1-yl) (2-phenyl-1H-benzo[d]imidazol-6-yl) methanone], for which the “effect on FRET efficiency of the biosensor” value in assay [1] was “inhibits FRET”. Further, the “effect on formation of radiation-induced BRCA1 foci” value in assay [2] is listed as “inhibits the formation of radiation-induced BRCA1 foci; also recorded: selectively inhibits damage-induced BRCA1 foci formation”. Moreover, in assay [3], the “effect on radiation-induced recruitment of TOPBP1” value is reported as “little effect”. For the same compound, the “effect on IR-induced RAD51 foci” value in assay [4] is given as “selectively suppresses”. In addition, the “effect on RPA32 accumulation” value in assay [5] is listed as “little effect”.
